Measured values published in patent US12060387B2, “Polypeptide-based shuttle agents for improving the transduction efficiency of polypeptide cargos to the cytosol of target eukaryotic cells, uses thereof, methods and kits relating to same” (priority 2015, dated 2024).
Read-outs that look alike come from different tables or passages of the source. Where no end group is shown, it is not given here.

Assays:
HeLa cells [1] = assay: GFP-NLS transduction efficiency, flow cytometry (Pos cells %, relative fluorescence intensity FL1-A); format: cell-based, Human; settings: GFP-NLS 5 μM, 1 hour
primary myoblasts = assay: Calcein endosomal escape assay, quantification by flow cytometry; format: cell-based, Human
Protocol: (§1) In addition to microscopy, flow cytometry allows a more quantitative analysis of the endosomal leakage as the fluorescence intensity signal increases once the calcein is released in the cytoplasm. Calcein fluorescence is optimal at physiological pH (e.g., in the cytosol), as compared to the acidic environment of the endosome.
(§2) The cells were allowed to attach by incubating overnight in appropriate growth media, as described in Example 1. The next day, the media in wells was removed and replaced with 50 μL of fresh media without serum containing 62.5 μg/mL (100 μM) of calcein, except for HEK293A (250 μg/mL, 400 μM). At the same time, the shuttle agent(s) to be tested was added at a predetermined concentration. The plate was incubated at 37° C. for 30 minutes. The cells were washed with 1×PBS (37° C.) and fresh media containing 5-10% serum was added. The plate was incubated at 37° C. for 2.5 hours. The cells were washed with 1×PBS and detached using trypsinization.
(§3) Untreated calcein-loaded cells were used as a control to distinguish cells having a baseline of fluorescence due to endosomally-trapped calcein from cells having increased fluorescence due to release of calcein from endosomes. Fluorescence signal means (“mean counts”) were analyzed for endosomal escape quantification. In some cases, the “Mean Factor” was calculated, which corresponds to the fold-increase of the mean counts relative to control (untreated calcein-loaded cells). […] The cellular mortality was monitored with the percentage of cells in the total events scanned. When it became lower than the control, it was considered that the number of cellular debris was increasing due to toxicity and the assay was discarded.
To examine the effects of the shuttle agents on primary cells, primary myoblast cells were cultured and tested in the endosomal escape assays as described in Example 2.1. The results of flow cytometry analyses are summarized below in Tables 2.9 and 2.10, and in FIG. 4. In each case, the flow cytometry results were also confirmed by fluorescence microscopy.

HeLa cells [2] = format: cell-based, Human
Protocol: as §1, §2, §3
HeLa cells were cultured and tested in the endosomal escape assays as described in Example 2.1. In each case, the flow cytometry results were also confirmed by fluorescence microscopy (data not shown).

HeLa cells [3] = assay: GFP transduction efficiency, flow cytometry (% GFP-positive cells); format: cell-based, Human; settings: for Mean (%) (n = 3), FIG. 7B: shuttle 2.5 μM
Protocol: GFP, GFP-NLS and TAT-GFP are recombinant proteins developed and produced by Feldan (see Example 3.4 below).
Briefly, GFP recombinant protein was co-incubated with different concentrations of CM18-TAT-Cys or dimerized CM18-TAT-Cys (dCM18-TAT-Cys), and then exposed to HeLa cells for 1 hour.
Briefly, GFP recombinant protein (5 μM) was co-incubated with different concentrations and combinations of CM18-TAT-Cys, CM18-Penetratin-Cys, and dimers of each (dCM18-TAT-Cys, dCM18-Penetratin-Cys), and then exposed to HeLa cells for 1 hour. […] The results are shown in Table 3.3 and FIG. 8, as well as in Table 3.4 and FIG. 9.

[4] = Cell toxicity / % cell viability by flow cytometry (cells in total events v. untreated); format: cell-based, Human; settings: human, HeLa cells, HeLa, 1 hour; for viability at 1 h, 0.5 µM / viability at 1 h, 1 µM / viability at 1 h, 3 µM / viability at 1 h, 5 µM: Cell viability (%) (±St. Dev.; n = 3), read-out: Cell viability (%) (±St. Dev.; n = 3); for viability at 1 h, 0.5 µM: shuttle 0.5 μM; for viability at 1 h, 1 µM: shuttle 1 μM; for viability at 1 h, 3 µM: shuttle 3 μM; for viability at 1 h, 5 µM: shuttle 5 μM
Description: (§4) The fluorescence of GFP was quantified using flow cytometry (Accuri C6, Becton, Dickinson and Company (BD)). Untreated cells were used to establish a baseline in order to quantify the increased fluorescence due to the internalization of the fluorescent protein in treated cells. The percentage of cells with a fluorescence signal above the maximum fluorescence of untreated cells, “mean %” or “Pos cells (%)”, is used to identify positive fluorescent cells. “Relative fluorescence intensity (FL1-A)” corresponds to the mean of all fluorescence intensities from each cell with a fluorescent signal after fluorescent protein delivery with the shuttle agent. Also, the events scanned by flow cytometry corresponding to cells (size and granularity) were analyzed. The cellular toxicity (% cell viability) was monitored comparing the percentage of cells in the total events scanned of treated cells comparatively to untreated cells.

HeLa cells [5] = assay: as above; format: cell-based, Human; settings: HeLa; GFP-NLS 5 μM; shuttle 1 μM; 1 hour
Description: as §4

[6] = as above; format: cell-based, human; settings: human, THP-1 cells, Cell viability (%) (±St. Dev.; n = 3), FIG. 17B; THP-1; GFP-NLS 5 μM; shuttle 1 μM; 5 minutes
Description: as §4

[7] = FIG. 11B, TAT-GFP 5 μM, FIG. 11B
[8] = FIG. 13B, GFP-NLS 5 μM, FIG. 13B
[9] = FIG. 21B, GFP-NLS 5 μM, FIG. 21B

Question: Which “GFP-NLS transduction efficiency / intracellular delivery (in words)” value (HeLa cells [1]; Tables 5.2, 5.3, FIGS. 14, 15) does the source give for “KWKLFKKIGAVLKVLTTGYGRKKRRQRRRC [dCM18-TAT-Cys]” here?
Answer: increased

Question: And the “Mean (%) (n = 3), FIG. 14” value (HeLa cells [1]; shuttle 0.5 μM)?
Answer: 8.29%

Question: And the “Mean (%) (n = 3), FIG. 15” value (HeLa cells [1]; shuttle 1 μM)?
Answer: 17.83%

Question: And the Mean counts (primary myoblasts; primary myoblasts, peptide 2.5 μM, Table 2.11)?
Answer: 64 864

Question: What about the “Mean Factor” value (primary myoblasts; primary myoblasts, peptide 2.5 μM, factor v. no peptide) of the same sequence?
Answer: 2.1

Question: What about the “Mean Factor” value (HeLa cells [2]; Table 2.6, dimer 2 μM) of the same sequence?
Answer: 1.3

Question: And the “Mean counts (n = 4)” value (HeLa cells [2]; Table 2.6, dimer 2 μM)?
Answer: 79 380

Question: What about the “Mean Factor” value (HeLa cells [2]; Table 2.7, dimer 2 μM) of the same sequence?
Answer: 3.1

Question: And the “Mean counts (n = 3)” value (HeLa cells [2]; Table 2.7, dimer 2 μM)?
Answer: 174 274

Question: And the “GFP transduction efficiency / intracellular delivery (in words)” value (HeLa cells [3]; GFP 5 μM, 1 hour, Table 3.3 and FIG. 8)?
Answer: increased

Question: And the “GFP transduction efficiency / intracellular delivery (in words)” value (HeLa cells [3]; GFP 5 μM, 1 hour, Table 3.4 and FIG. 9)?
Answer: increased

Question: What about the “Mean (%) (n = 3), FIG. 8” value (HeLa cells [3]; GFP 5 μM, shuttle 0.5 μM, 1 hour) of the same sequence?
Answer: 8.86%

Question: And the “Mean (%) (n = 3), FIG. 9” value (HeLa cells [3]; GFP 5 μM, shuttle 1 μM, 1 hour)?
Answer: 18.43%

Question: And the “Mean (%) (n = 3), FIG. 7B” value (HeLa cells [3]; GFP 1 μM)?
Answer: 9.38%

Question: And the “Mean (%) (n = 3), FIG. 7B” value (HeLa cells [3]; GFP 5 μM)?
Answer: 22.2%

Question: And the “Mean (%) (n = 3), FIG. 7B” value (HeLa cells [3]; GFP 10 μM)?
Answer: 34.2%

Question: Which viability at 1 h, 0.5 µM ([4]; FIG. 6B, GFP 5 μM, FIG. 6B) does the source give for “KWKLFKKIGAVLKVLTTGYGRKKRRQRRRC [CM18-TAT-Cys]” here?
Answer: 88.4 ± 6%

Question: What about the viability at 1 h, 1 µM ([4]; FIG. 6B, GFP 5 μM, FIG. 6B) of the same sequence?
Answer: 90 ± 6%

Question: What about the viability at 1 h, 3 µM ([4]; FIG. 6B, GFP 5 μM, FIG. 6B) of the same sequence?
Answer: 91 ± 5%

Question: What about the viability at 1 h, 5 µM ([4]; FIG. 6B, GFP 5 μM, FIG. 6B) of the same sequence?
Answer: 90 ± 7%

Question: What about the viability at 1 h, 0.5 µM [4, 7] of the same sequence?
Answer: 84.4 ± 5%

Question: And the viability at 1 h, 1 µM [4, 7]?
Answer: 89.3 ± 5.26%

Question: And the viability at 1 h, 3 µM [4, 7]?
Answer: 93.2 ± 6.28%

Question: What about the viability at 1 h, 5 µM [4, 7] of the same sequence?
Answer: 95.1 ± 5.28%

Question: And the viability at 1 h, 0.5 µM [4, 8]?
Answer: 87.6 ± 4%

Question: What about the viability at 1 h, 1 µM [4, 8] of the same sequence?
Answer: 93 ± 8%

Question: And the viability at 1 h, 3 µM [4, 8]?
Answer: 94 ± 5%

Question: And the viability at 1 h, 5 µM [4, 8]?
Answer: 93 ± 4%

Question: What about the viability at 1 h, 3 µM [4, 9] of the same sequence?
Answer: 89 ± 5.37%

Question: What about the viability at 1 h, 5 µM [4, 9] of the same sequence?
Answer: 81 ± 6.34%

Question: And the viability at 1 h, 3.5 µM ([4]; antibody 0.5 μM, shuttle 3.5 μM, read-out: Cell viability (%) (± St. Dev.; n = 3), FIG. 19B)?
Answer: 95 ± 4.06%

Question: What about the “Cell viability (%) (±St. Dev.; n = 3), FIG. 21B” value (HeLa cells [5]) of the same sequence?
Answer: 94 ± 4.28%

Question: What about the “concentrations associated with an increase in cell toxicity” value (primary myoblasts; myoblast cells) of the same sequence?
Answer: above 10 μM

Question: And the viability at 5 min, 1 µM [6]?
Answer: 85 ± 6%
